The text below walks through data of patent US20250051344A1, “BIFUNCTIONAL SELECTIVE DEGRADERS OF SMARCA2 AND THERAPEUTIC USES THEREOF” (Nurix Therapeutics, Inc., priority 2023, published 2025).

Assay [1] concerns the target T1, SMARCA2 (Homo sapiens, UniProt P51531).
T1 construct: endogenous in cells
Kind of assay: SMARCA2 Cellular Degradation Assay (Western blot analysis on Jess platform). The format is cell-based. Particulars: for DC50 / Dmax: cellular degradation; for Fold Selectivity SMARCA4/2: ratio DC50 SMARCA4 / DC50 SMARCA2. A digest of the protocol: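 Readout: Jess Simple Western of tumor-extracted cell lysates, SMARCA2 area over actin area after background subtraction, shown as percentage of vehicle control.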

For assay [2], the target named is T2, SMARCA4 (Homo sapiens, UniProt P51532).
T2 construct: endogenous in cells
As to the kind of experiment: Cellular degradation assay, SMARCA4 (Table 1). The format is cell-based.

T2 sequence (P51532 whole entry, species assumed): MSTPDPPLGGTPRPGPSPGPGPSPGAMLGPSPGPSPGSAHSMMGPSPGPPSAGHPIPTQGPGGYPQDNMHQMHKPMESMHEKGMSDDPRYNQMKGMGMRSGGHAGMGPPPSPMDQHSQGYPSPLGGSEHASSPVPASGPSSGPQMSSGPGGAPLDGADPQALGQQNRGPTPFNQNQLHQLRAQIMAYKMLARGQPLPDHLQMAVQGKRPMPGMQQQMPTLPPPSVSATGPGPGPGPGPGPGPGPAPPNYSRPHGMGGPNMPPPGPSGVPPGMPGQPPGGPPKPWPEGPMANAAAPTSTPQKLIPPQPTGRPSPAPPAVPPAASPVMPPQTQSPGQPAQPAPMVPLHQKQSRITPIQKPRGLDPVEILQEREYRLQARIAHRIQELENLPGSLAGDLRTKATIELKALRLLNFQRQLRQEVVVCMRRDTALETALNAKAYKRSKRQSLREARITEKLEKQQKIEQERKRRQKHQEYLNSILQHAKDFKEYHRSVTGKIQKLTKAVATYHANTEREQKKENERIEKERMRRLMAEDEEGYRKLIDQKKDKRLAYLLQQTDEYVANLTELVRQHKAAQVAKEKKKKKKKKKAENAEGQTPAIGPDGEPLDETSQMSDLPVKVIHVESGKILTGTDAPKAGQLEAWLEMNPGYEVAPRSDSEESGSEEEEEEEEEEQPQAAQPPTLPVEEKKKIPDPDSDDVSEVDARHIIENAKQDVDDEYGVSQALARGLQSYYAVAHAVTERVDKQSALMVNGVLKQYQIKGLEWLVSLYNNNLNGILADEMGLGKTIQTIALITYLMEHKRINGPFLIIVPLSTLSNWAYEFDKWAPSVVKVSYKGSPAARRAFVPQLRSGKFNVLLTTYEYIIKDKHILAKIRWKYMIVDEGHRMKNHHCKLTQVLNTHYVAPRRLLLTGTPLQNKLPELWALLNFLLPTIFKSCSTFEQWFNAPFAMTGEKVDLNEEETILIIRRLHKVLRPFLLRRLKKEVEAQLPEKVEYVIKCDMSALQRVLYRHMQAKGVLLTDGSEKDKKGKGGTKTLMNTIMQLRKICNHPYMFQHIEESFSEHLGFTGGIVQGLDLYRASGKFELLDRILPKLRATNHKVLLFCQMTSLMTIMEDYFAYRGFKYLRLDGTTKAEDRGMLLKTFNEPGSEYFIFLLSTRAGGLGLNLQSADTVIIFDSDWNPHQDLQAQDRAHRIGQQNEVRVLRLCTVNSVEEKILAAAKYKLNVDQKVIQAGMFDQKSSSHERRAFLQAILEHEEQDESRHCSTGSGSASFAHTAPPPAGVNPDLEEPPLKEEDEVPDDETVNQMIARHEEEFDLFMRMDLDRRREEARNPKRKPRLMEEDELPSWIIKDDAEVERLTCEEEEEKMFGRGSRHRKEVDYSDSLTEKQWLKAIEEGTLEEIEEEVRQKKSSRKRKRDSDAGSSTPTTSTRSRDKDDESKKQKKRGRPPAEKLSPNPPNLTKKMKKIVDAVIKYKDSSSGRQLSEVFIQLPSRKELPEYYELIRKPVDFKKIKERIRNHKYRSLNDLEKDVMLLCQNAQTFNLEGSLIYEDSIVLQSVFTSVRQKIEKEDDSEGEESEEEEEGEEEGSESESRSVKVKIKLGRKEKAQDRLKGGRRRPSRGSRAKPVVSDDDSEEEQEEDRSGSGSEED
T1 sequence (P51531 whole entry, species assumed): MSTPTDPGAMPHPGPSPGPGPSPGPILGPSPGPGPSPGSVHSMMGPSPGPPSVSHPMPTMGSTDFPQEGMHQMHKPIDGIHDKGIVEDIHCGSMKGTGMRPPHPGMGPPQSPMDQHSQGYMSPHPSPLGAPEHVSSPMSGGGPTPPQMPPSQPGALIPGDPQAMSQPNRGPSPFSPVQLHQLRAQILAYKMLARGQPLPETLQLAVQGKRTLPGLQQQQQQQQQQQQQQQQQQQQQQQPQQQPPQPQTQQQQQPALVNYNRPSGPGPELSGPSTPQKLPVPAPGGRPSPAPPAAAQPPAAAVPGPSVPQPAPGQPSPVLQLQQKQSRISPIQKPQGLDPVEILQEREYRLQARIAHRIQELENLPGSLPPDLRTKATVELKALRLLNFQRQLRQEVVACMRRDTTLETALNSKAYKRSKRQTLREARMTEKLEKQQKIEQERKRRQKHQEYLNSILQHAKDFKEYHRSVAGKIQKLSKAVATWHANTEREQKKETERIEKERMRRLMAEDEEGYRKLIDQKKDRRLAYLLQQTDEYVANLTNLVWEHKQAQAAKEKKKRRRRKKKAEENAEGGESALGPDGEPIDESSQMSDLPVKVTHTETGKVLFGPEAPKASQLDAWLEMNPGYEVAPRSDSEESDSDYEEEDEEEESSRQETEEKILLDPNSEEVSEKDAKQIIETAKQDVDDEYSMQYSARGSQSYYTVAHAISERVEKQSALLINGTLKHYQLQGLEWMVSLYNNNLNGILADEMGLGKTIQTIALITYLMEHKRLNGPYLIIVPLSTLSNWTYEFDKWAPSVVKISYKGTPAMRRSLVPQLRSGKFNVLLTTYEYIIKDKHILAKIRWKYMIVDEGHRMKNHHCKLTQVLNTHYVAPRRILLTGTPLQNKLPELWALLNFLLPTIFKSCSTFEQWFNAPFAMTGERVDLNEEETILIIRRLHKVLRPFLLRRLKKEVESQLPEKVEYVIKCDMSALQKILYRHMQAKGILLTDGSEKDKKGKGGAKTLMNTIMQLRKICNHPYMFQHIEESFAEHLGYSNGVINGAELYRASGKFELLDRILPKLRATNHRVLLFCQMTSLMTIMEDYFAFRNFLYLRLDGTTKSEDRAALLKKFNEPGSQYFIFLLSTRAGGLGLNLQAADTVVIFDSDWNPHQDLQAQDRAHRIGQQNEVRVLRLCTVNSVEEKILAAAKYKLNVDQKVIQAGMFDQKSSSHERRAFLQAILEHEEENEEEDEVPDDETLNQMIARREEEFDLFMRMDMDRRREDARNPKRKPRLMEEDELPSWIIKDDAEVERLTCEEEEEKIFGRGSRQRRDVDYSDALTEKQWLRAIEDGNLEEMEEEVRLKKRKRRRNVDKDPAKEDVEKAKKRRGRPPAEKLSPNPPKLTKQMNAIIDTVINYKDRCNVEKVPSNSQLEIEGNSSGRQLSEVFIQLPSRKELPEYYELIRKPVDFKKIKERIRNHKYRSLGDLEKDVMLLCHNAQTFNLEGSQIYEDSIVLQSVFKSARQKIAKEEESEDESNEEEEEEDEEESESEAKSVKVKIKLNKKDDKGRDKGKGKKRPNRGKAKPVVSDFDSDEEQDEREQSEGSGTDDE

Broadly, the DC50 is the concentration at which degradation of the target reaches its halfway point. A high value points to a less potent degrader. In general, Dmax refers to the largest share of the target that was removed. A high value points to a fuller loss of target. As for `Cc1ccnn1C1(C(=O)N(C)C2CCN(CC3CCN(c4ccc(C5CCC(=O)NC5=O)cc4)CC3)CC2)CCN(c2cnnc(-c3ccccc3O)c2)CC1` (racemic) [Example 96, rac-N-{1-[(1-{4-[(3R)-2,6-dioxopiperidin-3-yl]phenyl}piperidin-4-yl)methyl]piperidin-4-yl}-1-[6-(2-hydroxyphenyl)pyridazin-4-yl]-N-methyl-4-(5-methyl-1H-pyrazol-1-yl)piperidine-4-carboxamide], in assay [1], the 50% degradation concentration (DC50) was 4.3 nM, the Dmax came to 87.1% and the “Fold Selectivity SMARCA4/2” value was 9. In assay [2], the DC50 amounted to 39.6 nM and the Dmax amounted to 60%.
For `O=C1CC[C@@H](c2ccc(O[C@H]3CC[C@H](CN4CC5(C4)CN(C(=O)C4(c6ccccc6)CCN(c6cnnc(-c7ccccc7O)c6)CC4)C5)CC3)cc2)C(=O)N1` (racemic) [Example 166, (3RS)-3-(4-{[(1r,4r)-4-[(6-{1-[6-(2-hydroxyphenyl)pyridazin-4-yl]-4-phenylpiperidine-4-carbonyl}-2,6-diazaspiro[3.3]heptan-2-yl)methyl]cyclohexyl]oxy}phenyl)piperidine-2,6-dione], in that order: 24.2 nM, 65.8%, 13, 317 nM and 35.2%.
On to `O=C1CCC(c2ccc(N3C[C@@H]4CN(CC5CCN(C(=O)C6(c7ccccc7)CCN(c7cnnc(-c8ccccc8O)c7)CC6)CC5)C[C@H]4C3)cc2)C(=O)N1` (mixture of isomers) [Example 160, (3RS)-3-{4-[(3aS,6aS)-5-[(1-{1-[6-(2-hydroxyphenyl)pyridazin-4-yl]-4-phenylpiperidine-4-carbonyl}piperidin-4-yl)methyl]-octahydropyrrolo[3,4-c]pyrrol-2-yl]phenyl}piperidine-2,6-dione], for which, in assay [1], half-maximal degradation (DC50) was put at 12 nM, the Dmax was 87.7% and the “Fold Selectivity SMARCA4/2” value is reported as 9. Further, in assay [2], the DC50 came out at 104 nM and the Dmax is 71.4%.
Consider `CC1CC2CN(CC3CCN(c4ccc([C@H]5CCC(=O)NC5=O)cc4)CC3)CC2N1C(=O)C1(c2ccccc2)CCN(c2cnnc(-c3ccccc3O)c2)CC1` (stereo partly drawn) [Example 50, (3R)-3-(4-{4-[(1-{1-[6-(2-hydroxyphenyl)pyridazin-4-yl]-4-phenylpiperidine-4-carbonyl}-2-methyl-hexahydropyrrolo[2,3-c]pyrrol-5-yl)methyl]piperidin-1-yl}phenyl)piperidine-2,6-dione], for which, in assay [1], it took 136 nM to reach half-maximal degradation (DC50), the Dmax is 53.4% and the “Fold Selectivity SMARCA4/2” value stood at 73.54. The same compound yielded a Dmax in assay [2] of 20.2%.
On to `O=C1CCC(Nc2ccc(C3CCN(CC(=O)N4CCC5(CC4)CN(C(=O)C4(c6ccccc6)CCN(c6cnnc(-c7ccccc7O)c6)CC4)C5)CC3)cc2)C(=O)N1` (racemic) [Example 108, rac-(r)-3-((4-(1-(2-(2-(1-(6-(2-hydroxyphenyl)pyridazin-4-yl)-4-phenylpiperidine-4-carbonyl)-2,7-diazaspiro[3.5]nonan-7-yl)-2-oxoethyl)piperidin-4-yl)phenyl)amino)piperidine-2,6-dione], for which, in assay [1], half-maximal degradation (DC50) was put at 23.4 nM, the maximal degradation (Dmax) came to 66.5% and the “Fold Selectivity SMARCA4/2” value stood at 8. Besides, in assay [2], it took 179 nM to reach half-maximal degradation (DC50) and the Dmax turned out to be 52.5%.
On to `Cc1ccnn1C1(C(=O)N(C)C2CCN(CCC3CCN(c4ccc([C@H]5CCC(=O)NC5=O)cc4)CC3)CC2)CCN(c2cnnc(-c3ccccc3O)c2)CC1` (racemic) [Example 78, rac-N-{1-[2-(1-{4-[(3R)-2,6-dioxopiperidin-3-yl]phenyl}piperidin-4-yl)ethyl]piperidin-4-yl}-1-[6-(2-hydroxyphenyl)pyridazin-4-yl]-N-methyl-4-(5-methyl-1H-pyrazol-1-yl)piperidine-4-carboxamide], for which, in assay [1], the DC50 stood at 5.1 nM, the greatest degradation seen (Dmax) stood at 85.8% and the “Fold Selectivity SMARCA4/2” value is 1961. For the same compound, in assay [2], the Dmax turned out to be 37.4%.
